Laboratory results as given in ChEMBL document CHEMBL6109057, “Synthesis of harmaline N-9 derivatives and investigation of in vitro anticancer activity” (Bioorg Med Chem Lett, 2025).
The source made the active and inactive calls. The calls are words filed in the database; no cut-off is given here.

Columns and labels:
[1] = system: MCF7; experiment: Antiproliferative activity against human MCF7 cells assessed as reduction in cell viability at 50 uM measured after 24 hrs; type: functional, cell-based
[2] = system: HCT-116; experiment: Antiproliferative activity against human HCT-116 cells assessed as reduction in cell viability at 50 uM measured after 24 hrs; type: functional, cell-based
[3] = system: MGC-803; experiment: Antiproliferative activity against human MGC-803 cells assessed as reduction in cell viability at 50 uM measured after 24 hrs; type: functional, cell-based
[4] = system: HCT-116; experiment: Antiproliferative activity against human HCT-116 cells assessed as reduction in cell viability measured after 24 hrs; type: functional, cell-based; conditions: HCT-116, 24 h
[5] = system: HCT-116; experiment: Antiproliferative activity against human HCT-116 cells assessed as cell viability at 50 uM measured after 24 hrs relative to control; type: functional; conditions: read-out: Activity
[6] = system: MCF7; experiment: Antiproliferative activity against human MCF7 cells assessed as cell viability at 50 uM measured after 24 hrs relative to control; type: functional; conditions: read-out: Activity
[7] = system: MGC-803; experiment: Antiproliferative activity against human MGC-803 cells assessed as reduction in cell viability measured after 24 hrs; type: functional, cell-based; conditions: MGC-803, 24 h
[8] = system: MCF7; experiment: Antiproliferative activity against human MCF7 cells assessed as reduction in cell viability measured after 24 hrs; type: functional, cell-based; conditions: MCF7, 24 h
[9] = system: MGC-803; experiment: Antiproliferative activity against human MGC-803 cells assessed as cell viability at 50 uM measured after 24 hrs relative to control; type: functional; conditions: read-out: Activity

With `COc1ccc2c3c(n(Cc4cccc(F)c4)c2c1)C(C)=NCC3` the Activity [1] was “Active”, the Activity [2] was “Active” and the Activity [3] was “Active”.

With `COc1ccc2c3c(n(CCc4ccc(F)cc4)c2c1)C(C)=NCC3` the Activity [1] was “Active”, the Activity [2] was “Active” and the Activity [3] was “Active”.

For `COc1ccc2c3c(n(CCCCBr)c2c1)C(C)=NCC3`, the Activity [1] was “Active”, the Activity [2] was “Active” and the Activity [3] was “Active”.

`C#CCn1c2c(c3ccc(OC)cc31)CCN=C2C` was tested, and the Activity [1] was “Active”, the Activity [2] was “Active” and the Activity [3] was “Active”.

For `COC(=O)Cn1c2c(c3ccc(OC)cc31)CCN=C2C`, the Activity [1] was “Active”, the Activity [2] was “Active” and the Activity [3] was “Active”.

With `COc1ccc2c3c(n(Cc4ccccc4C)c2c1)C(C)=NCC3` the Activity [1] was “Active”, the Activity [2] was “Active” and the Activity [3] was “Active”.

In the case of `COC(=O)CCCCn1c2c(c3ccc(OC)cc31)CCN=C2C`, the Activity [1] is reported as “Active”, the Activity [2] is reported as “Active” and the Activity [3] is reported as “Active”.

For `COc1ccc2c3c(n(Cc4ccc(F)cc4)c2c1)C(C)=NCC3`, the Activity [1] was “Active”, the Activity [2] was “Active” and the Activity [3] was “Active”.

Molecule `COc1ccc2c3c(n(Cc4ccc5ccccc5c4)c2c1)C(C)=NCC3` has an IC50 [4] of 6.32 µM, a viability at 50 µM [5] of less than 10% and a viability at 50 µM [6] of less than 10%. For the same molecule, the IC50 [7] was 21.4 µM, the IC50 [8] was 11.9 µM and the viability at 50 µM [9] was less than 10%.

For `COc1ccc2c3c(n(Cc4ccccc4)c2c1)C(C)=NCC3`, the Activity [1] was “Active”, the Activity [2] was “Active” and the Activity [3] was “Active”.

For `COC(=O)CCn1c2c(c3ccc(OC)cc31)CCN=C2C`, the Activity [1] was “Active”, the Activity [2] was “Active” and the Activity [3] was “Active”.

`COc1ccc2c3c(n(CCCCCBr)c2c1)C(C)=NCC3` was tested, and the Activity [1] was “Active”, the Activity [2] was “Active” and the Activity [3] was “Active”.
